Test results reported in ChEMBL document CHEMBL5370525, “Antibiotics with novel mode of action as new weapons to fight antimicrobial resistance” (Eur J Med Chem, 2023).
In brackets after ≈: the same amount, converted by molar mass.

Legend:
[1] = tested on: Streptococcus pneumoniae; experiment: Antibacterial activity against Levofloxacin-nonsusceptible Streptococcus pneumoniae assessed as inhibition of bacterial growth by CLSI-based assay; assay type: functional
[2] = tested on: Staphylococcus aureus; experiment: Antibacterial activity against Staphylococcus aureus 456 infected in neutropenic BALB/c mouse model assessed as reduction in lung bacterial load at 1.56 to 400 mg/kg, sc administered every 6 hr and measured after 24 hrs by CLSI-based assay (reference value: 5.6 to 6.3 log10 CFU); assay type: functional; details: dose 1.56-400 mg/kg, pooled result: one value given for 6 cell lines, strains, targets or settings
[3] = tested on: Staphylococcus aureus; experiment: Antibacterial activity against levofloxacin-resistant Staphylococcus aureus assessed as inhibition of bacterial growth by CLSI-based assay; assay type: functional
[4] = tested on: Escherichia coli; experiment: Antibacterial activity against Levofloxacin-nonsusceptible Escherichia coli assessed as inhibition of bacterial growth by CLSI-based assay; assay type: functional
[5] = tested on: Mycoplasma genitalium; experiment: Antibacterial activity against Mycoplasma genitalium assessed as inhibition of bacterial growth; assay type: functional; details: Mycoplasmoides genitalium
[6] = tested on: Neisseria gonorrhoeae; experiment: Antibacterial activity against Neisseria gonorrhoeae ATCC 49226 assessed as inhibition of bacterial growth by agar dilution method; assay type: functional
[7] = tested on: Chlamydia trachomatis; experiment: Antibacterial activity against Chlamydia trachomatis assessed as inhibition of bacterial growth; assay type: functional
[8] = tested on: Clostridioides difficile; experiment: Antibacterial activity against Clostridium difficile clinical isolates assessed as inhibition of bacterial growth; assay type: functional
[9] = tested on: Staphylococcus aureus; experiment: Antibacterial activity against Staphylococcus aureus assessed as inhibition of bacterial growth; assay type: functional
[10] = tested on: Staphylococcus aureus; experiment: Antibacterial activity against Vancomycin-resistant Staphylococcus aureus clinical isolate assessed as inhibition of bacterial growth by CLSI-based broth microdilution method; assay type: functional
[11] = tested on: Staphylococcus aureus; experiment: Antibacterial activity against Linezolid non-susceptible Staphylococcus aureus clinical isolate assessed as inhibition of bacterial growth by CLSI-based broth microdilution method; assay type: functional
[12] = tested on: Staphylococcus aureus; experiment: Antibacterial activity against Meticillin-Resistant Staphylococcus aureus clinical isolate assessed as inhibition of bacterial growth by CLSI-based broth microdilution method; assay type: functional
[13] = Oral bioavailability in BALB/c mouse at 32 mg/kg by LC/MS-MS analysis; assay type: ADME, organism-based; details: in vivo
[14] = tested on: Staphylococcus aureus; experiment: Antibacterial activity against Vancomycin-intermediate Staphylococcus aureus clinical isolate assessed as inhibition of bacterial growth by CLSI-based broth microdilution method; assay type: functional
[15] = tested on: Staphylococcus aureus; experiment: Antibacterial activity against methicillin-resistant Staphylococcus aureus ATCC 33591 infected in mouse assessed as log reduction in bacterial CFU in thigh 120 mg/kg, po measured after 24 hrs; assay type: functional
[16] = tested on: HeLa; experiment: Cytotoxicity against human HeLa cells assessed as inhibition of cell growth by MTT assay; assay type: functional, cell-based
[17] = Cytotoxicity against MDCK cells assessed as inhibition of cell growth by MTT assay; assay type: toxicity, cell-based, Canis lupus familiaris; details: dog
[18] = tested on: Staphylococcus aureus; experiment: Antibacterial activity against Daptomycin non-susceptible Staphylococcus aureus clinical isolate assessed as inhibition of bacterial growth by CLSI-based broth microdilution method; assay type: functional
[19] = Volume of distribution at steady state in BALB/c mouse at 24 mg/kg, iv by LC/MS-MS analysis; assay type: ADME, organism-based; details: in vivo, read-out: Vdss

SMILES: O=c1ccc2ncc(=O)n3c2n1C[C@H]3CN1CCC(NCc2cc3c(cn2)OCCC3)CC1 [GEPOTIDACIN]
- MIC90 [1]: 0.5 µg/mL (≈ 1.11 µM)
- Activity [2]: 1.4 log10CFU
- MIC90 [3]: 0.5 µg/mL (≈ 1.11 µM)
- MIC90 [4]: 0.5 µg/mL (≈ 1.11 µM)

SMILES: C[C@@H]1CN2c3c(cc4c(N5C(=O)OC[C@@H]5C)noc4c3F)CC3(C(=O)NC(=O)NC3=O)[C@H]2[C@H](C)O1 [ZOLIFLODACIN]
- MIC [5]: < 1 µg/mL
- MIC90 [6]: 0.125 µg/mL (≈ 0.256 µM)
- MIC [7]: 0.5 µg/mL (≈ 1.03 µM)

SMILES: CCc1c(Cl)c(O)c(Cl)c(O)c1C(=O)O[C@H]1[C@H](O)[C@H](OC)[C@H](OC/C2=C\C=C\C[C@H](O)/C(C)=C/[C@H](CC)[C@@H](O[C@@H]3OC(C)(C)[C@@H](OC(=O)C(C)C)[C@H](O)[C@@H]3O)/C(C)=C/C(C)=C/C[C@@H]([C@@H](C)O)OC2=O)O[C@@H]1C [FIDAXOMICIN]
- MIC [8]: 0.15 µg/mL (≈ 0.142 µM)

SMILES: Cn1cc(NC(=O)c2cc(NC(=O)c3ccc(/C=C/c4cnc5ccccc5c4)cc3)cn2C)cc1C(=O)NCCN1CCOCC1 [MGB-BP-3]
- MIC80 [9]: < 0.2 µM

SMILES: CN1CCC(C(=O)NC(=O)c2c(F)ccc(OCc3nc4cc(C(F)(F)F)cnc4s3)c2F)CC1
- MIC [10]: 1 µg/mL (≈ 1.94 µM)
- MIC [11]: 1 µg/mL (≈ 1.94 µM)
- MIC [12]: 1 µg/mL (≈ 1.94 µM)
- bioavailability [13]: 1%
- MIC [14]: 1 µg/mL (≈ 1.94 µM)
- log(activity) [15]: 2
- IC50 [16]: > 120 µg/mL
- IC50 [17]: > 120 µg/mL
- MIC [18]: 1 µg/mL (≈ 1.94 µM)
- Vd [19]: 2.02 L/kg
